This series has as its system patients with MDD and metabolic comorbidities. Briefly: Post hoc analysis of the Example 1 study: patients with MDD and metabolic comorbidities. It counts as in vivo, human. Here is the method:
Patients with MDD who have metabolic comorbidities face additional adverse events associated with antidepressants (e.g., weight gain, metabolic abnormalities) and often respond poorly. This example presents results from a post hoc analysis of clinical study of Example 1 in patients with MDD and metabolic comorbidities.
The clinical study of Example 1 enrolled patients with MDD, aged 18-75 years, with HAMD-17 score ≥20 and a MADRS total score ≥28 to 1 of 2 cohorts: 30 mg Cohort and 50 mg Cohort. HAMD-17 responders (≥50% reduction from baseline) at Day 15 continued in study and were assessed for retreatment eligibility.
Patients with a metabolic comorbidity were identified by the following coded terms in patient history: obesity, hyperlipidemia, hypercholesterolemia, type-2 diabetes mellitus, type-1 diabetes mellitus, glucose tolerance impaired, hypertriglyceridemia, dyslipidemia, metabolic syndrome, and/or diabetic dyslipidemia.

The mark [1] stands for this setting: Day 15 of first treatment cycle, metabolic comorbidities subpopulation.
The mark [2] stands for this setting: metabolic comorbidities subpopulation.

With `C[C@@]1(O)CC[C@H]2[C@H](CC[C@@H]3[C@@H]2CC[C@]2(C)[C@@H](C(=O)Cn4cc(C#N)cn4)CC[C@@H]32)C1` [Compound (1), 1-(2-((3R,5R,8R,9R,10S,13S,14S,17S)-3-hydroxy-3,13-dimethylhexadecahydro-1H-cyclopenta[a]phenanthren-17-yl)-2-oxoethyl)-1H-pyrazole-4-carbonitrile], under “161/253 who responded to and completed the first treatment cycle”, the “Patients not requiring additional treatment courses during their time in the study” value is on record as 55.9%. Under setting [1], the HAMD-17 remission rate came out at 37.1%, the HAMD-17 response rate amounted to 67.3% and the “Mean (SD) CFB in HAMD-17” value is listed as −14.8 (7.10). For the same molecule, under setting [2], the TEAE diarrhea was determined as 6.7%, the TEAE dizziness is 9.1%, the TEAE dry mouth turned out to be 5.5% and the TEAE headache was 14.2%. Under setting [2], the TEAE sedation was found to be 5.1%, the TEAE somnolence amounted to 13.8% and the “TEAE upper respiratory infection” value came out at 5.9%. In addition, the “TEAEs leading to discontinuation of study drug” value (metabolic comorbidities subpopulation (8/253)) came to 3.2%. Besides, the “TEAEs leading to withdrawal from the study” value (metabolic comorbidities subpopulation (11/253)) was found to be 4.3%. Also, where the note is “metabolic comorbidities subpopulation (19/253)”, the “TEAEs leading to dose reduction” value was found to be 7.5%. In addition, the “Share of patients with TEAEs that were mild/moderate” value (metabolic comorbidities subpopulation (148/167)) is recorded as 88.6%. Moreover, the “Patients with ≥1 TEAE over the study duration” value (metabolic comorbidities subpopulation (167/253)) worked out at 66.0%. In addition, under “metabolic comorbidities subpopulation, first-cycle responders”, the “Mean (range) number of total treatment courses” value is recorded as 1.9 (1-5). Moreover, for the setting “patients with MDD and metabolic comorbidities”, the Tolerability entry is on record as “generally well tolerated”.

(Values after patent US20240245711A1, “A 19-NOR C3,3-DISUBSTITUTED C21-N-PYRAZOLYL STEROID FOR THE TREATMENT OF MAJOR DEPRESSIVE DISORDER” (Sage Therapeutics, Inc., priority 2021, published 2024).)
